Laboratory results from patent publication US6916818B2, “Azaindoles having serotonin receptor affinity” (NPS Allelix Corp., priority 1999, dated 2005).

Target: T1, human 5HT6 receptor (Homo sapiens, UniProt P50406)
T1 construct: expressed in transfected cells
Test: Functional assay: serotonin-stimulated adenyl cyclase (cAMP EIA) in HEK 293 cells expressing 5HT6
Type: cell-based
Conditions: test compound 100 nM and 10 μM along with serotonin
Description: The 5HT6 receptor responds to serotonin and other agonists by increasing adenyl cyclase mediated production of cyclic AMP. Particular test compounds were assayed for their effect on adenyl cyclase activity using the procedure described below.
Compounds acting as antagonists at the 5HT6 receptor will antagonize the agonist effect of serotonin and thus, will block the serotonin-induced increase in adenyl cyclase activity.
HEK 293 cells stably expressing the human 5HT6 receptor were plated in 6 well plates in DMEM (Dulbecco's Modified Eagle Medium)/F12 (Nutrient Mixture F12—Ham) media with 10% FCS (fetal calf serum) and G418 (Geneticen Disulfate, 500 ug/ml), and incubated at 37° C. in a CO2 incubator. The cells were allowed to grow to about 70% confluence before use in the assay.
The culture medium of each well was removed, and the wells were washed once with serum free media. Then 2 ml of SFM+IBMX medium (SFM with 0.5 mM IBMX, 3-isobutyl-1-methylxanthine, 0.1% ascorbic acid and 10 mM pargyline) was added to each well and the wells were incubated at 37° C. for 10 min. Following incubation, the SFM+IBMX medium was removed from each well and fresh SFM+IBMX media was added to the wells separately with one of a) serotonin (1 μM final concentration); b) test compound (100 nM and 10 μM, to test for agonist activity); and c) test compound (100 nM and 10 μM) along with serotonin ([…], to test for antagonist activity). Basal adenyl cyclase activity was determined from wells with only SFM+IBMX media added.
The cells were then incubated at 37° C. for 30 minutes in a CO2 incubator. […] The pellets were discarded and the supernatants were stored at 4° C. until assayed for cAMP concentration. cAMP content for each extract was determined in duplicate by EIA (enzyme-immunoassay) using the Amersham Biotrak cAMP EIA kit (Amersham RPN 225). Final results were expressed as % basal response for agonists and % reversal of serotonin response for antagonists.
The total stimulation of adenyl cyclase by serotonin (So) was determined as the difference in concentration of cAMP in the serotonin-treated cells (Cd) and the basal-treated cells (Cf). […]
The net stimulation (S) of basal adenyl cyclase by an agonist test compound was determined as the difference in cAMP concentration in the drug-treated cell (C) and the basal-treated cells (Cf). […]
The net stimulation (Ss) of basal adenyl cyclase by serotonin in the presence of an antagonist test compound was determined as the difference in cAMP concentration in the serontonin-drug-treated cells (Cs) and the basal-treated cells (Cf). […]
The ability of the antagonist test compound to reverse the serotonin stimuation of adenyl cyclase activity (% reversal, % R) was determined by the formula: % R=(1−Ss/So)×100

T1 sequence (P50406 whole entry): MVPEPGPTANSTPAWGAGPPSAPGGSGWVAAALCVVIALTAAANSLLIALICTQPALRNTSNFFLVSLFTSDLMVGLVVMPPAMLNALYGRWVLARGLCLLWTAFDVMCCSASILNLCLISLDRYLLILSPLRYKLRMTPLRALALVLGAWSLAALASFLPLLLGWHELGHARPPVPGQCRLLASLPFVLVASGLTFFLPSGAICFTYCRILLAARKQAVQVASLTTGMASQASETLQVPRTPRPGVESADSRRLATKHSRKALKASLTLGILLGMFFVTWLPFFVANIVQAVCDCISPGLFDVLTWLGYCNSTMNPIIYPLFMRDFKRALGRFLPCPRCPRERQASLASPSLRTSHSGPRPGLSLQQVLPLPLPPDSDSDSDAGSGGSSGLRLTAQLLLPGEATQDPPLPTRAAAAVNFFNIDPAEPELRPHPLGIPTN

| Structure (SMILES) | reversal of serotonin stimulation of adenyl cyclase (antagonist activity) |
| --- | --- |
| O=S(=O)(c1cccc2ccccc12)n1cc(C2=CCN3CCCC3C2)c2cccnc21 (stereo not shown) [3-(1,2,3,5,8,8a-Hexahydro-7-indolizinyl)-1-(1-naphthalenesulfonyl)-7-azaindole] | able to reverse the serotonin stimulation of adenyl cyclase |
| O=S(=O)(c1ccccc1)n1cc(C2=CCN3CCCC3C2)c2cccnc21 (stereo not shown) [3-(1,2,3,5,8,8a-Hexahydro-7-indolizinyl)-1-benzenesulfonyl-7-azaindole] | able to reverse the serotonin stimulation of adenyl cyclase |
| O=S(=O)(c1cccc2ccccc12)n1cc(C2=CCN3CCCC3C2)c2cnccc21 (stereo not shown) [3-(1,2,3,5,8,8a-Hexahydro-7-indolizinyl)-1-(1-naphthalenesulfonyl)-5-azaindole] | able to reverse the serotonin stimulation of adenyl cyclase |
| O=S(=O)(c1ccccc1)n1cc(C2=CCN3CCCC3C2)c2cnccc21 (stereo not shown) [3-(1,2,3,5,8,8a-Hexahydro-7-indolizinyl)-1-benzenesulfonyl-5-azaindole] | able to reverse the serotonin stimulation of adenyl cyclase |
